Molecular target: S. pneumoniae Topoisomerase IV ATPase (ParE) (Streptococcus pneumoniae serotype 4, UniProt Q59961)
Assay: S. pneumoniae Topoisomerase IV ATPase inhibition
Type: biochemical
Conditions: values marked * are an average of two or more data points, read-out: % Inh (13 μM) of S. pneumoniae Topoisomerase IV ATPase
How it was run: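 S. pneumoniae ParE (1.25 nM) ATPase with 160 μM ATP and 5 μg/ml sheared DNA in pH 8.0 Tris, Mg2+, DTT, Brij-35; phosphate detected by malachite green/molybdate at 650 nm. Normalised to 2% DMSO (0%) and 20 μM EDTA (100%); IC50 from 10 concentrations.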

S. pneumoniae Topoisomerase IV ATPase (ParE), sequence (Q59961 whole entry): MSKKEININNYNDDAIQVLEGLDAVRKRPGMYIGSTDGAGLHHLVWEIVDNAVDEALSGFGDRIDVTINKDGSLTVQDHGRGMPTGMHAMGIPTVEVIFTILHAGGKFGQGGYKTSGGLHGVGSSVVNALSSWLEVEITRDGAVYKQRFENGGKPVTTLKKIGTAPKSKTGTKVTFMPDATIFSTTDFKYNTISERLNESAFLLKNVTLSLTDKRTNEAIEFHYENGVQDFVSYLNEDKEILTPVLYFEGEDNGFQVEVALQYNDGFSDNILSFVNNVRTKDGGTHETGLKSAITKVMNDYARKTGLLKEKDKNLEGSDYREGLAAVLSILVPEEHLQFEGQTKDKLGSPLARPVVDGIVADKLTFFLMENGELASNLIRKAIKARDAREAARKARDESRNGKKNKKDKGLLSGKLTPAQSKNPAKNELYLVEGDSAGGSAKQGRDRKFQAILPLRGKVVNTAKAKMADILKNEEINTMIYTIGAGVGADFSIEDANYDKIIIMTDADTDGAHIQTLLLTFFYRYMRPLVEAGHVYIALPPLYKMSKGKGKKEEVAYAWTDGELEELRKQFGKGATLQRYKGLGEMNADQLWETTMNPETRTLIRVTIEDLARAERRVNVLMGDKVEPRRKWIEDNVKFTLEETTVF

SMILES	inhibition at 13 µM [%]
COC(=O)CC(=O)c1cncc(-c2cnc(Nc3ccc(F)c(Cl)c3)nc2-n2nc(C(F)(F)F)cc2C)c1 [Example 1041, Methyl 3-(5-(2-(3-chloro-4-fluorophenylamino)-4-(5-methyl-3-(trifluoromethyl)-1H-pyrazol-1-yl)pyrimidin-5-yl)pyridin-3-yl)-3-oxopropanoate]	100
CNC(=O)/C=C/c1cccc(-c2cnc(Nc3cc(OC)cc(C(F)(F)F)c3)nc2NCCc2ccncc2)c1 [Example 372]	80.9
Cc1cc(C)cc(Nc2ncc(-c3cccc(/C=C/C(=O)O)c3)c(-n3ccc(C(F)(F)F)n3)n2)c1 [Example 617, (2E)-3-(3-{2-[(3,5-dimethylphenyl)amino]-4-[3-(trifluoromethyl)-1H-pyrazol-1-yl]pyrimidin-5-yl}phenyl)prop-2-enoic acid]	100
O=C(O)c1cncc(-c2cnc(Nc3ccc(F)c(Cl)c3)nc2N2CCC(F)CC2)c1 [Example 248, 5-[2-[(3-chloro-4-fluorophenyl)amino]-4-(4-fluoropiperidin-1-yl)pyrimidin-5-yl]pyridine-3-carboxylic acid]	66.1
CN(C)CCCNc1nc(Nc2ccc(F)c(Cl)c2)ncc1-c1cncc(C(=O)NCc2ccccc2)c1 [Example 371, N-benzyl-5-(2-(3-chloro-4-fluorophenylamino)-4-(3-(dimethylamino)propylamino)pyrimidin-5-yl) nicotinamide]	82.2
CC1CCC(C)N1c1nc(Nc2ccc(F)c(Cl)c2)ncc1-c1cncc(C(=O)O)c1 (stereo not shown) [Example 252, 5-[2-[(3-chloro-4-fluorophenyl)amino]-4-(2,5-dimethylpyrrolidin-1-yl)pyrimidin-5-yl]pyridine-3-carboxylic acid]	81.8
CN1CCN(CCn2cc(C(=O)O)c(=O)c3cc(-c4cnc(Nc5ccc(F)c(Cl)c5)nc4-n4ccc(C(F)(F)F)n4)ccc32)CC1 [Example 1071, 6-(2-(3-Chloro-4-fluorophenylamino)-4-(3-(trifluoromethyl)-1H-pyrazol-1-yl)pyrimidin-5-yl)-1-(2-(4-methylpiperazin-1-yl)ethyl)-4-oxo-1,4-dihydroquinoline-3-carboxylic acid]	100
COCCCNc1nc(Nc2ccc(F)c(Cl)c2)ncc1-c1nc(-c2cccnc2)cs1 [Example 499, N^2-(3-chloro-4-fluorophenyl)-N^4-(3-methoxypropyl)-5-[4-(pyridin-3-yl)-1,3-thiazol-2-yl]pyrimidine-2,4-diamine]	34
CNC(=O)C1CCN(c2nc(Nc3ccc(F)c(Cl)c3)ncc2-c2cncc(C(=O)O)c2)CC1 [Example 247, 5-[2-[(3-chloro-4-fluoprophenyl)amino]-4-[4-(methylcarbamoyl)-piperidin-1-yl]pyrimidin-5-yl]pyridine-3-carboxylic acid]	42.2
CN(C)CCCNc1nc(Nc2ccc(F)c(Cl)c2)ncc1-c1ccc(C(=O)O)s1 [Example 17, 5-{2-(3-chloro-4-fluorophenylamino)-4-[3-(dimethylamino)propylamino]pyrimidin-5-yl}thiophene-2-carboxylic acid]	54.8
O=C(O)c1cncc(-c2cnc(Nc3ccc(F)c(Cl)c3)nc2NCCOc2ccccc2)c1 [Example 239, 5-[2-[(3-chloro-4-fluorophenyl)amino]-4-(2-phenoxyethylamino)-pyrimidin-5-yl]pyridine-3-carboxylic acid]	85.1
O=C(O)c1cccc(-c2cnc(Nc3cc(F)cc(Cl)c3)nc2N2CCOCC2)n1 [Example 393, 6-[2-(3-Chloro-5-fluoro-phenylamino)-4-morpholin-4-yl-pyrimidin-5-yl]-pyridine-2-carboxylic acid]	82
COc1cc(Nc2ncc(-c3cncnc3)c(N[C@@H]3CCOC3)n2)cc(OC)c1 [Example 358, (R)-N^2-(3,5-dimethoxyphenyl)-N^4-(tetrahydrofuran-3-yl)-5,5′-bipyrimidine-2,4-diamine]	63
O=C(O)c1cncc(-c2cnc(Nc3ccc(F)c(Cl)c3)nc2N2CCCCCC2)c1 [Example 254, 5-[4-(azepan-1-yl)-2-[(3-chloro-4-fluorophenyl)amino]-pyrimidin-5-yl]pyridine-3-carboxylic acid]	16.8
CC(C)OCCNc1nc(Nc2ccc(F)c(Cl)c2)ncc1-c1cncnc1 [Example 52, N^2-(3-chloro-4-fluorophenyl)-N4-(2-propan-2-yloxyethyl)-5-pyrimidin-5-ylpyrimidine-2,4-diamine]	69.5
Cc1cc(-c2nccs2)nn1-c1nc(Nc2ccc(F)c(Cl)c2)ncc1-c1cncc(C(=O)O)c1 [Example 529, 5-{2-[(3-chloro-4-fluorophenyl)amino]-4-[5-methyl-3-(1,3-thiazol-2-yl)-1H-pyrazol-1-yl]pyrimidin-5-yl}pyridine-3-carboxylic acid]	100

SMILES	inhibition at 13 µM [%]
CS(=O)(=O)CC(=O)c1cncc(-c2cnc(Nc3ccc(F)c(Cl)c3)nc2-n2ccc(C(F)(F)F)n2)c1 [Example 993, 1-(5-(2-(3-chloro-4-fluorophenylamino)-4-(3-(trifluoromethyl)-1H-pyrazol-1-yl)pyrimidin-5-yl)pyridin-3-yl)-2-(methylsulfonyl)ethanone]	100
CONC(=O)c1cncc(-c2cnc(Nc3ccc(F)c(Cl)c3)nc2-n2nc(C(F)(F)F)cc2C)c1 [Example 933, 5-(2-(3-chloro-4-fluorophenylamino)-4-(5-methyl-3-(trifluoromethyl)-1H-pyrazol-1-yl)pyrimidin-5-yl)-N-methoxynicotinamide]	100
O=S(=O)(NCCO)c1cccc(-c2cnc(Nc3ccc(F)c(Cl)c3)nc2-n2ccc(C(F)(F)F)n2)c1 [Example 997, 3-(2-(3-Chloro-4-fluorophenylamino)-4-(3-(trifluoromethyl)-1H-pyrazol-1-yl)pyrimidin-5-yl)-N-(2-hydroxyethyl)benzenesulfonamide]	100
CNC(=O)c1cc(-c2cnc(Nc3ccc(F)c(Cl)c3)nc2-n2nc(C(F)(F)F)cc2C)cnc1OC [Example 1103, 5-(2-(3-chloro-4-fluorophenylamino)-4-(5-methyl-3-(trifluoromethyl)-1H-pyrazol-1-yl)pyrimidin-5-yl)-2-methoxy-N-methylnicotinamide]	76
CN(C)CCCNc1nc(Nc2ccc(F)c(Cl)c2)ncc1-c1cccc(NS(=O)(=O)N(C)C)c1 [Example 11, N′-[3-(2-[(3-chloro-4-fluorophenyl)amino]-4-{[3-(dimethylamino)propyl]amino}pyrimidin-5-yl)phenyl]-N,N-dimethylsulfonamide]	18.2
O=C(O)/C=C/c1cccc(-c2cnc(Nc3ccc(F)c(Cl)c3)nc2-n2cccn2)c1 [Example 1120, (E)-3-[3-[2-[(3-chloro-4-fluorophenyl)amino]-4-pyrazol-1-ylpyrimidin-5-yl]phenyl]prop-2-enoic acid]	79
Cc1cc(C(F)(F)F)nn1-c1nc(Nc2ccc(F)c(Cl)c2)ncc1-c1cnc(OCCN2CCOCC2)c(C(=O)O)c1 [Example 1141, 5-(2-(3-chloro-4-fluorophenylamino)-4-(5-methyl-3-(trifluoromethyl)-1H-pyrazol-1-yl)pyrimidin-5-yl)-2-(2-morpholinoethoxy)nicotinic acid]	100
CCOC(=O)c1cncc(-c2cnc(Nc3ccc(F)c(Cl)c3)nc2NCc2ccco2)c1 [Example 110, ethyl 5-[2-[(3-chloro-4-fluorophenyl)amino]-4-(furan-2-ylmethylamino)pyrimidin-5-yl]pyridine-3-carboxylate]	27.6
COC(=O)[C@@H](C)Nc1nc(Nc2ccc(F)c(Cl)c2)ncc1-c1cncnc1 [Example 56, methyl (2R)-2-[[2-[(3-chloro-4-fluorophenyl)amino]-5-pyrimidin-5-ylpyrimidin-4-yl]amino]propanoate]	46.3
CCn1cc(-c2cnc(Nc3cc(C)cc(OC)c3)nc2-n2ccc(C(F)(F)F)n2)cc(C(=O)O)c1=O [Example 1172, 1-ethyl-5-{2-[(3-methoxy-5-methylphenyl)amino]-4-[3-(trifluoromethyl)-1H-pyrazol-1-yl]pyrimidin-5-yl}-2-oxo-1,2-dihydropyridine-3-carboxylic acid]	100
Cc1cc(C)cc(Nc2ncc(-c3ccc4c(c3)C(=O)NS4(=O)=O)c(-n3ccc(C(F)(F)F)n3)n2)c1 [Example 833, 5-{2-[(3,5-dimethylphenyl)amino]-4-[3-(trifluoromethyl)-1H-pyrazol-1-yl]pyrimidin-5-yl}-1,2-benzothiazol-3(2H)-one 1,1-dioxide]	100
COc1cc(Nc2ncc(-c3cnc(OC)c(C(=O)NS(=O)(=O)C(C)C)c3)c(-n3ccc(C(F)(F)F)n3)n2)cc(OC)c1 [Example 818, 5-{2-[(3,5-dimethoxyphenyl)amino]-4-[3-(trifluoromethyl)-1H-pyrazol-1-yl]pyrimidin-5-yl}-2-methoxy-N-(propan-2-ylsulfonyl)pyridine-3-carboxamide]	100
Cc1cc(C(F)(F)F)nn1-c1nc(Nc2ccc3c(c2)CCC3)ncc1-c1cccc(/C=C/C(=O)O)c1 [Example 656, (2E)-3-(3-{2-(2,3-dihydro-1H-inden-5-ylamino)-4-[5-methyl-3-(trifluoromethyl)-1H-pyrazol-1-yl]pyrimidin-5-yl}phenyl)prop-2-enoic acid]	78
COCCCNc1nc(Nc2ccc(F)c(Cl)c2)ncc1-c1nnn[nH]1 [Example 937, N2-(3-chloro-4-fluorophenyl)-N4-(3-methoxypropyl)-5-(1H-tetrazol-5-yl)pyrimidine-2,4-diamine]	17
COc1cc(Nc2ncc(-c3cnc(OCCS(C)(=O)=O)c(C(=O)O)c3)c(-n3nc(C(F)(F)F)cc3C)n2)cc(OC)c1 [Example 965, 5-(2-(3,5-dimethoxyphenylamino)-4-(5-methyl-3-(trifluoromethyl)-1H-pyrazol-1-yl)pyrimidin-5-yl)-2-(2-(methylsulfonyl)ethoxy)nicotinic acid]	100

Reference: patent US20100137313A1 (ASTRAZENECA AB, priority 2008, published 2010)
